The results in this text go back to ChEMBL document CHEMBL3046483, “Novel 2'-hydroxylfurylchalcones: synthesis and biological activity” (2010).

Active and inactive are the calls of the source. The rule behind the calls is not given here.

Experiment [1] deals with Pseudoperonospora cubensis. Nature of the experiment: Antifungal activity against Pseudoperonospora cubensis assessed as cucumber downy mildew control measured after 1 day. The class given is functional, organism-based.
Experiment [2] has as its system Cucumis sativus. Briefly: Herbicidal activity against Cucumis sativus (cucumber) assessed as inhibitory rate of seedling height at 7.5 g/hm'2 relative to control. The class given is functional.
A further experiment relates to Botrytis cinerea. Briefly: Antifungal activity against Botryotinia fuckeliana assessed as cucumber grey mould control measured after 1 day. Type of experiment: functional, organism-based.
Experiment [3] concerns Sorghum bicolor. Nature of the experiment: Herbicidal activity against Sorghum bicolor assessed as inhibitory rate of seedling height at 7.5 g/hm'2 relative to control. Type of experiment: functional.
For experiment [4], the system named is Dinebra chinensis. Nature of the experiment: Herbicidal activity against Dinebra chinensis assessed as inhibitory rate of fresh weight gain at 7.5 g/hm'2 relative to control. The class given is functional.
The subject of experiment [5] is Triticum aestivum. Nature of the experiment: Herbicidal activity against Triticum aestivum (wheat) assessed as inhibitory rate of seedling height at 7.5 g/hm'2 relative to control. The class given is functional.
The test system of experiment [6] is Golovinomyces cichoracearum. Nature of the experiment: Antifungal activity against Golovinomyces cichoracearum assessed as cucumber powdery mildew control measured after 1 day. Type of experiment: functional. More on the design: concentration or dose not given beside the values.
A further experiment concerns Pyricularia grisea. Nature of the experiment: Antifungal activity against Magnaporthe grisea assessed as rice blast control measured after 1 day. The class given is functional, organism-based.
Experiment [7] concerns Brassica rapa subsp. oleifera. Nature of the experiment: Herbicidal activity against Brassica rapa subsp. oleifera assessed as inhibitory rate of seedling height at 7.5 g/hm'2 relative to control. The class given is functional.
Experiment [8] concerns Sorghum bicolor. Briefly: Herbicidal activity against Sorghum bicolor assessed as inhibitory rate of fresh weight gain at 7.5 g/hm'2 relative to control. The class given is functional.
The test system of experiment [9] is Triticum aestivum. Nature of the experiment: Herbicidal activity against Triticum aestivum (wheat) assessed as inhibitory rate of fresh weight gain at 7.5 g/hm'2 relative to control. Type of experiment: functional.
In experiment [10] the test system is Cucumis sativus. Briefly: Herbicidal activity against Cucumis sativus (cucumber) assessed as inhibitory rate of fresh weight gain at 7.5 g/hm'2 relative to control. The class given is functional.
The test system of experiment [11] is Brassica rapa subsp. oleifera. Nature of the experiment: Herbicidal activity against Brassica rapa subsp. oleifera assessed as inhibitory rate of fresh weight gain at 7.5 g/hm'2 relative to control. The class given is functional.
Experiment [12] concerns Dinebra chinensis. Nature of the experiment: Herbicidal activity against Dinebra chinensis assessed as inhibitory rate of seedling height at 7.5 g/hm'2 relative to control. Type of experiment: functional.
In experiment [13] the test system is Amaranthus tricolor. Briefly: Herbicidal activity against Amaranthus tricolor assessed as inhibitory rate of seedling height at 7.5 g/hm'2 relative to control. Type of experiment: functional.
The test system of experiment [14] is Amaranthus tricolor. Nature of the experiment: Herbicidal activity against Amaranthus tricolor assessed as inhibitory rate of fresh weight gain at 7.5 g/hm'2 relative to control. Type of experiment: functional.

Regarding `O=C(/C=C/c1ccco1)c1occc1O`, the outcome (in experiment [1]; in the experiment on Botrytis cinerea; in the experiment with Pyricularia grisea) was inactive. The “inhibition (INH)” value in the experiment with Cucumis sativus [2] is 36.1%; with Sorghum bicolor [3] it was 4%; in the experiment on Dinebra chinensis [4] it was 56.1%; with Triticum aestivum [5] it was 24.4%; in experiment [7], 38.1%; in the experiment on Sorghum bicolor [8], 12.4%. Besides, the “inhibition (INH)” value in the experiment on Triticum aestivum [9] was 49.6%; with Cucumis sativus [10], 49.7%; in experiment [11] it was 82.1%; in the experiment on Dinebra chinensis [12], -3.2%; in the experiment with Amaranthus tricolor [13], 12.5%; in the experiment with Amaranthus tricolor [14], 69.6%. Moreover, the Activity in experiment [6] is recorded as under 10%.

With `O=C(/C=C/c1cccc([N+](=O)[O-])c1)c1occc1O`, the outcome (in experiment [1]; in the experiment with Botrytis cinerea; in the experiment with Pyricularia grisea) was inactive. The “inhibition (INH)” value with Cucumis sativus [2] was 46.8%; with Dinebra chinensis [4], 63.1%; in the experiment on Triticum aestivum [5], 33.9%; in experiment [7], 52.4%; with Triticum aestivum [9] it was 52.5%; with Cucumis sativus [10], 40.6%. For the same compound, the “inhibition (INH)” value was 85.9% in experiment [11], 1.4% in the experiment with Dinebra chinensis [12], 25% with Amaranthus tricolor [13] and 74.8% with Amaranthus tricolor [14]. Also, the Activity in experiment [6] is given as under 10%.

Take `O=C(/C=C/c1ccc(Cl)cc1Cl)c1occc1O`: the result (in experiment [1]; in the experiment on Botrytis cinerea; in the experiment with Pyricularia grisea) was inactive. The “inhibition (INH)” value is 35.1% in the experiment with Cucumis sativus [2]; 57.1% in the experiment with Dinebra chinensis [4]; 39.5% with Triticum aestivum [5]; 42.9% in [7]; 63.4% with Triticum aestivum [9]; 37.3% in the experiment on Cucumis sativus [10]. Also, the “inhibition (INH)” value is recorded as 87.2% in experiment [11], -0.7% in the experiment on Dinebra chinensis [12], 18.8% in the experiment with Amaranthus tricolor [13] and 69.6% with Amaranthus tricolor [14]. In experiment [6], the Activity is listed as under 10%.

Consider `COc1ccc(/C=C/C(=O)c2occc2O)cc1`, for which the outcome (in experiment [1]; with Botrytis cinerea; with Pyricularia grisea) was inactive. The “inhibition (INH)” value in the experiment on Cucumis sativus [2] was 33.3%; with Dinebra chinensis [4], 60.4%; in the experiment on Triticum aestivum [5] it was 35.4%; in [7], 38.1%; with Triticum aestivum [9], 53.3%; in the experiment with Cucumis sativus [10], 35.3%. For the same compound, the “inhibition (INH)” value was 72.3% in experiment [11], 2.1% in the experiment on Dinebra chinensis [12], 37.5% in the experiment on Amaranthus tricolor [13] and 54.8% with Amaranthus tricolor [14]. For the same compound, the Activity in experiment [6] is reported as under 10%.

For the compound `O=C(/C=C/c1ccccc1)c1occc1O`, the outcome (in experiment [1]; with Botrytis cinerea; with Pyricularia grisea) was inactive. Besides, the “inhibition (INH)” value with Cucumis sativus [2] turned out to be 33.7%; with Sorghum bicolor [3] it was 55.3%; with Dinebra chinensis [4] it was 31.3%; in the experiment with Triticum aestivum [5], 37.2%; in [7], 38.1%; in the experiment on Sorghum bicolor [8], 36%. Moreover, the “inhibition (INH)” value in the experiment with Triticum aestivum [9] is given as 46.2%; in the experiment with Cucumis sativus [10], 1.3%; in experiment [11], 60.3%; with Dinebra chinensis [12], -4.4%; with Amaranthus tricolor [13] it was 18.8%; with Amaranthus tricolor [14], 32.6%. In addition, the Activity in experiment [6] is reported as under 10%.

Regarding `O=C(/C=C/c1ccc(Cl)cc1)c1occc1O`, the outcome (in experiment [1]; in the experiment with Botrytis cinerea; in the experiment on Pyricularia grisea) was inactive. For the same compound, the “inhibition (INH)” value in the experiment with Cucumis sativus [2] turned out to be 36.5%; with Dinebra chinensis [4], 52.6%; with Triticum aestivum [5] it was 41.8%; in experiment [7], 52.4%; in the experiment with Triticum aestivum [9], 64.6%; in the experiment with Cucumis sativus [10] it was 68.2%. The “inhibition (INH)” value in [11] is recorded as 83.5%; in the experiment with Dinebra chinensis [12], -3.9%; in the experiment with Amaranthus tricolor [13], 37.5%; in the experiment with Amaranthus tricolor [14] it was 81.2%. Moreover, the Activity in experiment [6] was under 10%.

Consider `O=C(/C=C/c1ccc(F)cc1)c1occc1O`, for which the result (in experiment [1]; in the experiment with Botrytis cinerea; in the experiment on Pyricularia grisea) was inactive. In addition, the “inhibition (INH)” value in the experiment with Cucumis sativus [2] is listed as 56.8%; in the experiment on Dinebra chinensis [4], 19%; with Triticum aestivum [5], 37%; in experiment [7], 19%; in the experiment on Triticum aestivum [9], 40.6%; in the experiment on Cucumis sativus [10], 17.5%. In addition, the “inhibition (INH)” value is 15.1% in experiment [11], 3.5% in the experiment with Dinebra chinensis [12], 6.3% in the experiment on Amaranthus tricolor [13] and 24.3% in the experiment on Amaranthus tricolor [14]. For the same compound, the Activity in experiment [6] is under 10%.

As to `O=C(/C=C/c1ccc2ccccc2c1)c1occc1O`, the outcome (in experiment [1]; in the experiment with Botrytis cinerea; in the experiment with Pyricularia grisea) was inactive. The “inhibition (INH)” value in the experiment on Cucumis sativus [2] is reported as 41.3%; in the experiment with Dinebra chinensis [4], 55.9%; with Triticum aestivum [5], 27.1%; in experiment [7], 52.4%; in the experiment on Triticum aestivum [9], 45.4%; in the experiment on Cucumis sativus [10], 44%. The “inhibition (INH)” value is 72.9% in experiment [11], -7.4% in the experiment on Dinebra chinensis [12], 37.5% with Amaranthus tricolor [13] and 90.6% in the experiment with Amaranthus tricolor [14]. Moreover, in experiment [6], the Activity was under 10%.

On to `O=C(/C=C/c1ccc(Br)cc1)c1occc1O`, for which the outcome (in experiment [1]; in the experiment on Botrytis cinerea; with Pyricularia grisea) was inactive. Also, the “inhibition (INH)” value in the experiment on Cucumis sativus [2] is listed as 40.5%; in the experiment on Dinebra chinensis [4], 66.7%; in the experiment on Triticum aestivum [5], 42.5%; in experiment [7], 52.4%; in the experiment on Triticum aestivum [9] it was 64.2%; in the experiment on Cucumis sativus [10], 34.5%. For the same compound, the “inhibition (INH)” value is 66.7% in experiment [11], 4.2% in the experiment with Dinebra chinensis [12], 37.5% in the experiment on Amaranthus tricolor [13] and 71.7% in the experiment on Amaranthus tricolor [14]. In addition, the Activity in experiment [6] is under 10%.

As for `COC(=O)[C@@H](C)Oc1ccc(Oc2ncc(C(F)(F)F)cc2Cl)cc1` [HALOXYFOP-P-METHYL], the “inhibition (INH)” value in the experiment with Cucumis sativus [2] is on record as 42.1%; with Sorghum bicolor [3] it was 100%; in the experiment with Dinebra chinensis [4], 100%; in the experiment on Triticum aestivum [5] it was 100%; in experiment [7], 44.4%; with Sorghum bicolor [8] it was 100%. For the same compound, the “inhibition (INH)” value came to 100% with Triticum aestivum [9]; 31.5% in the experiment with Cucumis sativus [10]; 17.2% in [11]; 100% in the experiment on Dinebra chinensis [12]; 2.1% in the experiment with Amaranthus tricolor [13]; 21.6% with Amaranthus tricolor [14].
